A word on the EC50: it is the concentration at which the effect is half-maximal.

The assay has as its target T1, human M4 muscarinic acetylcholine receptor (Homo sapiens, UniProt P08173).
T1 construct: expressed in transfected cells; host or cells: CHO-K1
T1 sequence (P08173 1-479): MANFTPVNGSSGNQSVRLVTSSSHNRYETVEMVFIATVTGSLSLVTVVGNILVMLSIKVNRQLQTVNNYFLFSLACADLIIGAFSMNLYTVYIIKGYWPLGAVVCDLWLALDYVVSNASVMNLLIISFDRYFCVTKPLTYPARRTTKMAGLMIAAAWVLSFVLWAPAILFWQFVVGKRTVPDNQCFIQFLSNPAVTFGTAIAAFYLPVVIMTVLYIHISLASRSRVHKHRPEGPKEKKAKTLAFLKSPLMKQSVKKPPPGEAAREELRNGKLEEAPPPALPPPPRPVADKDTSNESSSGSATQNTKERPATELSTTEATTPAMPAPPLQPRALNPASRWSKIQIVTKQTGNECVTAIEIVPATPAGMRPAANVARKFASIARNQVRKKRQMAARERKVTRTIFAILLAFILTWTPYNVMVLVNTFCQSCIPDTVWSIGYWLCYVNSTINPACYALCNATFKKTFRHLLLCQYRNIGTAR
As to the kind of experiment: human FLIPR-based M4 PAM assay (CHO-K1 cells, human M4 receptor and Gαqi5, calcium dye fluorescence, acetylcholine at 20% of maximum). In kind it is cell-based. To be noted: inflection point (IP) of 4 parameter logistic dose response curve; CHO-K1 cells with human M4 receptor and Gαqi5; FLIPR Tetra. Here is the method:
In a typical experiment the M4 muscarinic acetylcholine receptor modulating activity of the compounds of the present invention was determined in accordance with the following experimental method. […] On the day of assay, growth medium is removed, the cells are washed 2 times with wash buffer, and cells are incubated in dye loading buffer at 37° C., 5% CO2 for ˜1 hour. […] Next, 10 uL of acetylcholine is added (final concentration calculated so as to achieve 20% of the maximum acetycholine response), and the fluorescence reading is continued for 3.5 min. In some cases, a third addition of acetylcholine (final concentration calculated to achieve 70% of the maximal acetylcholine response) is performed. The resulting dose response curves are fit to a 4 parameter logistic equation and the final result is determined as the inflection point (IP) of the curve
CHO-K1 cells stably transfected with human M4 receptor and chimeric G-protein Gαqi5 are thawed from liquid N2 storage, resuspended in growth medium, plated in black, clear bottom 384 well plates, and incubated 16-20 hours at 37° C., 5% CO2.
On the day of assay, growth medium is removed, the cells are washed 2 times with wash buffer, and cells are incubated in dye loading buffer at 37° C., 5% CO2 for ˜1 h. […] Next, 10 uL of acetylcholine is added (final concentration calculated so as to achieve 20% of the maximum acetycholine response), and the fluorescence reading is continued for 3.5 min. In some cases, a third addition of acetylcholine (final concentration calculated to achieve 70% of the maximal acetylcholine response) is performed.

Structures are written as SMILES.

As to `COc1ccc(CN2CCc3nc(N4CCC(Oc5ccc(OC)nc5)CC4)c(C)cc3C2=O)cc1` [Example 2, 6-(4-methoxybenzyl)-2-(4-((6-methoxypyridin-3-yl)oxy)piperidin-1-yl)-3-methyl-7,8-dihydro-1,6-naphthyridin-5(6H)-one], the EC50 was 988 nM. As for `COc1ccc(OC2CCN(c3nc4c(cc3C)CNC(=O)N4)CC2)cn1` [Example 48, 7-(4-((6-Methoxypyridin-3-yl)oxy)piperidin-1-yl)-6-methyl-3,4-dihydropyrido[2,3-d]pyrimidin-2(1H)-one], the figure is 272 nM; as for `Cc1cc2c(=O)[nH]ncc2nc1N1CCC(Oc2cnn(C)c2)CC1` [Example 23, 3-methyl-2-(4-((1-methyl-1H-pyrazol-4-yl)oxy)piperidin-1-yl)pyrido[2,3-d]pyridazin-5(6H)-one], 158 nM; as for `Cc1cc2c(=O)[nH]c(=O)[nH]c2nc1N1CCC(OCC2(C)CC2)CC1` [Example 25, 6-methyl-7-(4-((1-methylcyclopropyl)methoxy)piperidin-1-yl)pyrido[2,3-d]pyrimidine-2,4(1H,3H)-dione], 19 nM.

For the molecule `Cc1cc2c(=O)[nH]cnc2nc1N1CCC(Oc2cccnc2)CC1` [Example 16, 6-methyl-7-(4-(pyridin-3-yloxy)piperidin-1-yl)pyrido[2,3-d]pyrimidin-4(3H)-one], the EC50 amounted to 213 nM. To `Cc1cc2c(=O)n(C)c(C)nc2nc1N1CCC(Oc2cnc3c(c2)COC3)CC1` [Example 45, 7-(4-((5,7-dihydrofuro[3,4-b]pyridin-3-yl)oxy)piperidin-1-yl)-2,3,6-trimethyl-pyrido[2,3-d]pyrimidin-4(3H)-one] belongs 361 nM. To `COc1ccc(OC2CCN(c3nc4nc(C)n(C)c(=O)c4cc3C)CC2)cn1` [Example 40, 7-(4-((6-methoxypyridin-3-yl)oxy)piperidin-1-yl)-2,3,6-trimethyl-pyrido[2,3-d]pyrimidin-4(3H)-one] belongs 155 nM. To `COc1ccc(OC2CCN(c3nc4cn[nH]c(=O)c4cc3C)CC2)cn1` [Example 11, 2-(4-((6-methoxypyridin-3-yl)oxy)piperidin-1-yl)-3-methylpyrido[2,3-d]pyridazin-5(6H)-one] belongs 22 nM; to `COc1ccc(OC2CCN(c3nc4cc(C)oc(=O)c4cc3C)CC2)cn1` [Example 55, 2-(4-((6-Methoxypyridin-3-yl)oxy)piperidin-1-yl)-3,7-dimethyl-5H-pyrano[4,3-b]pyridin-5-one], 70 nM.

On to `Cc1cc2c(=O)[nH]c(=O)[nH]c2nc1N1CCC(OCC2CCCC2)CC1` [Example 38, 7-(4-(cyclopentyl-methoxy)piperidin-1-yl)-6-methylpyrido[2,3-d]pyrimidine-2,4(1H,3H)-dione], for which the EC50 was determined as 112 nM. As for `Cc1cc2c(=O)n(CCO)ncc2nc1N1CCC(OCC2(C)CC2)CC1` [Example 43, 6-(2-hydroxyethyl)-3-methyl-2-(4-((1-methylcyclopropyl)methoxy)piperidin-1-yl)pyrido[2,3-d]pyridazin-5(6H)-one], the figure is 133 nM.

As to `COc1ccc(OC2CCN(c3nc4c(=O)[nH][nH]c(=O)c4cc3C)CC2)cn1` [Example 53, 2-(4-((6-Methoxypyridin-3-yl)oxy)piperidin-1-yl)-3-methyl-6,7-dihydropyrido[2,3-d]pyridazine-5,8-dione], the EC50 amounted to 260 nM.

On to `COc1ccc(OC2CCN(c3nc4[nH]c(=N)[nH]c(=O)c4cc3C)CC2)cn1` [Example 50, 2-Imino-7-(4-((6-methoxypyridin-3-yl)oxy)piperidin-1-yl)-6-methyl-2,3-dihydropyrido[2,3-d]pyrimidin-4(1H)-one], for which the EC50 was determined as 469 nM. In the case of `Cc1cc2c(=O)[nH]ncc2nc1N1CCC(Oc2cccc(C#N)c2)CC1` [Example 21, 3-((1-(3-methyl-5-oxo-5,6-dihydropyrido[2,3-d]pyridazin-2-yl)piperidin-4-yl)oxy)benzonitrile], the EC50 turned out to be 26 nM. As for `COCc1nc2nc(N3CCC(Oc4ccc(OC)nc4)CC3)c(C)cc2c(=O)[nH]1` [Example 28, 2-(methoxymethyl)-7-(4-((6-methoxypyridin-3-yl)oxy)piperidin-1-yl)-6-methylpyrido[2,3-d]pyrimidin-4(3H)-one], the figure is 95 nM. To `Cc1cc2c(=O)[nH]c(=O)[nH]c2nc1N1CCC(Oc2cnn(C)c2)CC1` [Example 26, 6-methyl-7-(4-((1-methyl-1H-pyrazol-4-yl)oxy)piperidin-1-yl)pyrido[2,3-d]pyrimidine-2,4(1H,3H)-dione] belongs 90 nM; to `COc1ccc(OC2CCN(c3nc4nc(C)[nH]c(=O)c4cc3C)CC2)cn1` [Example 19, 7-(4-((6-methoxypyridin-3-yl)oxy)piperidin-1-yl)-2,6-dimethylpyrido[2,3-d]pyrimidin-4(3H)-one], 74 nM; to `Cc1cc2c(=O)[nH]ncc2nc1N1CCC(Oc2cnc3c(c2)COC3)CC1` [Example 29, 2-(4-((5,7-dihydrofuro[3,4-b]pyridin-3-yl)oxy)piperidin-1-yl)-3-methylpyrido[2,3-d]pyridazin-5(6H)-one], 53 nM. Consider `COc1ccc(OC2CCN(c3nc4cc[nH]c(=O)c4cc3C)CC2)cn1` [Example 12, 2-(4-((6-methoxypyridin-3-yl)oxy)piperidin-1-yl)-3-methyl-1,6-naphthyridin-5(6H)-one], for which the EC50 was determined as 114 nM. As for `COc1ccc(OC2CCN(c3nc4c(cc3C)C(=O)NCC4)CC2)cn1` [Example 1, 2-(4-((6-Methoxypyridin-3-yl)oxy)piperidin-1-yl)-3-methyl-7,8-dihydro-1,6-naphthyridin-5(6H)-one], the figure is 393 nM; as for `COc1ccc(OC2CCN(c3nc4ccoc(=O)c4cc3C)CC2)cn1` [Example 54, 2-(4-((6-Methoxypyridin-3-yl)oxy)piperidin-1-yl)-3-methyl-5H-pyrano[4,3-b]pyridin-5-one], 85 nM.

For `Cc1cc2c(=O)[nH]c(=O)[nH]c2nc1N1CCC(OCC(C)C)CC1` [Example 36, 7-(4-isobutoxy-piperidin-1-yl)-6-methylpyrido[2,3-d]pyrimidine-2,4(1H,3H)-dione], the EC50 was 138 nM. As to `COc1ccc(OC2CCN(c3nc4c(cnc(=O)n4C)cc3C)CC2)cn1` [Example 49, 7-(4-((6-Methoxypyridin-3-yl)oxy)piperidin-1-yl)-1,6-dimethylpyrido[2,3-d]pyrimidin-2(1H)-one], the EC50 was determined as 210 nM.

In the case of `COc1ccc(OC2CCN(c3nc4[nH]c(=O)oc(=O)c4cc3C)CC2)cn1` [Example 47, 7-(4-((6-Methoxypyridin-3-yl)oxy)piperidin-1-yl)-6-methyl-2H-pyrido[2,3-d][1,3]oxazine-2,4(1H)-dione], the EC50 stood at 78 nM.

Consider `COCCc1nc2nc(N3CCC(Oc4ccc(OC)nc4)CC3)c(C)cc2c(=O)[nH]1` [Example 30, 2-(2-methoxyethyl)-7-(4-((6-methoxypyridin-3-yl)oxy)piperidin-1-yl)-6-methylpyrido[2,3-d]pyrimidin-4(3H)-one], for which the EC50 amounted to 546 nM. On to `COc1ccc(OC2CCN(c3nc4oc(=O)[nH]c(=O)c4cc3C)CC2)cn1` [Example 52, 7-(4-((6-Methoxypyridin-3-yl)oxy)piperidin-1-yl)-6-methyl-2H-pyrido[3,2-e][1,3]oxazine-2,4(3H)-dione], for which the EC50 amounted to 15 nM.

These data come from patent publication US10836775B2, “6,6-fused heteroaryl piperidine ether allosteric modulators of the M4 muscarinic acetylcholine receptor” (Merck Sharp & Dohme Corp., priority 2016, dated 2020).
